For data set [1], the target named is T1, ACSS2 (Homo sapiens (Human), UniProt Q9NR19). Kind of data set: Cellular assay of 14C acetate incorporation into histones (IC50 ACSS2 cellular histone). As to conditions: HCT-15 cells. It counts as cell-based. An excerpt: Cellular Assay of ^14C Acetate Incorporation into Histones (IC50 ACSS2 Cellular Histone)
This protocol describes a cellular assay capable to quantify endogenous histone acetylation activity in the human HCT-15 cancer cell line following the incorporation of extracellularly administered radiolabeled ^14C acetate with a scintillation based read out on acid extracted histones.
HCT-15 cells are trypsinized, washed and suspended in DMEM culture medium supplemented with penicillin/streptomycin (100 U/mL), sodium pyruvate (1 mM), and 10% FBS
Compounds serial dilutions are prepared in 96-well V-bottom microplate from 10 mM stock solutions in DMSO. From these dilutions 0.5 μl are transferred to a fresh plate including pure DMSO as negative control. The dilutions are prepared such, that the final concentration in the assay is 1/400 of the concentration in the serial dilution. The final DMSO concentration in the assay is 0.25%.
The cell suspension is seeded at densities of 2×10^5 cells per 170 μl into individual wells of a 96 well plate each containing 0.5 μl aliquots of compound serial dilutions and are kept for 1 h in a cell incubator. To each well 30 μL of a mixture containing 0.5 mCi/mL of ^14C-acetate with full medium are added. Then, the wells are incubated for 3 hrs in the cell incubator.
Further steps of the procedure should be conducted on ice or instrumentations precooled to 4° C. Cells are sedimented in the 96-well V-bottom microplate by centrifugation (Eppendorf 5804 R) at 1200 rpm for 5 min. The supernatant is removed and the cells are washed twice with 200 μL of PBS-NaB (5 mM sodium butyrate) buffer by iterative resuspension and centrifugation. Finally, the cells are resuspended in 50 μL of TEB (PBS-NaB+0.5% Triton X-100) and left on ice for 10 minutes. After centrifugation at 2300 rpm for 10 minutes at 4° C. the supernatant is removed, the remaining pellet is suspended in 50 μL of 0.2M HCl and incubated over night at 4° C. After incubation the well plate is shaken for 2 minutes in a MTP plate shaker set to 1200 rpm and then centrifuged at 3700 rpm for 10 mins. The lysate is carefully aspirated (˜43 μL) and transferred into a white MTP plate (Greiner bio-one 65509). 90 μL of Ultima Gold XR scintillation cocktail are added and the plates are sealed with a transparent cover tape before mixing vigorously using plate shaker set to 1200 rpm. Radioactivity from ^14C incorporation in the wells is measured as CPM count in a MicroBeta Trilux luminescence counter.

For data set [2], the target named is T1, ACSS2. Kind of data set: Cellular assay of 14C acetate incorporation into fatty acids (IC50 ACSS2 cellular lipids). It counts as cell-based. As to conditions: HCT-15 cells. As for the experimental part:
Cellular Assay of ^14C Acetate Incorporation into Fatty Acids (IC50 ACSS2 Cellular Lipids)
This protocol describes a cellular assay capable to quantify endogenous fatty acid synthesis activity in the human HCT-15 cancer cell line following the incorporation of extracellularly administered radiolabeled ^14C acetate with a scintillation proximity based read out on extracted fatty acids.
HCT-15 cells were grown in RPMI 1640 (Gibco) supplemented with 2 mM glutamine, 1 mM sodium pyruvate 10 mM HEPES and 10% FCS (heat-inactivated) passaged every 2-3 days to remain a subconfluent, vital culture. A working cell bank was prepared with each aliquot containing 1×10^7 viable cells. After thawing, these cells are dilute immediately 1:20 in pre-warmed (37° C.) culture medium. Cells are collected by centrifugation at 200×g for 5 min, and the supernatant is replaced by 30 mL of fresh culture medium per aliquot to obtain a cell suspension containing 350000 cells/ml. From this cell suspension 100 μL are dispersed into each well of a collagen coated 96 well plate, (black, clear bottom, PS, F-bottom, Greiner) and culture for 24 h (37° C., 5% CO2). After incubation the culture medium is removed and the wells are washed once with 100 μL PBS++(supplemented with Mg^2+/Ca^2+, Gibco) and 50 μL assay medium (RPMI 1640+10 mM HEPES) are added to each well. Compounds serial dilutions are prepared from 10 mM stock solutions in DMSO using a fixed dilution factor (usually 1:3). After preparation of the dilution series in DMSO, the individual dilutions are further diluted in the assay medium. This working dilution is prepared such, that the concentration is 7× of the final concentration in the assay. The maximal DMSO concentration in the final assay is 0.1%.
To each well 10 μL compound working dilution or DMSO blank are added and the cells are cultured for 2 h (37° C., 5% CO2). Then 10 μL AlamarBlue reagent (Invitrogen) containing 14 μCi/mL 14C-acetate (Perkin Elmer) are added to each well (70 μl total volume) and cells are again cultured for 2 h. Cell viability is verified by measuring the AlamarBlue fluorescence (Tecan Safire, ex: 544 nm/em: 590 nm). After incubation the culture medium is removed and the wells are carefully washed once with cold 100 μL PBS++. For cell lysis and fatty acid recovery 50 μl 0.1 M NaOH and 0.1% Triton-X100 are added per well. The plate is sealed with PlateLoc (clear peelable heat seal, Agilent) and incubate at 70° C. for 16-24 h. After cooling to room temperature, the plates are centrifuged for 1 min at 1000 rpm and the plate seals are removed. For acidification 150 μL 0.1 M HCl are added to each well, mixed and 150 μL of the mixture are transferred into a 96 well FlashPlate (Perkin Elmer). The plates are sealed with TopSeal-A (Perkin Elmer). To allow for the fatty acid binding to the well surfaces the plates are incubate for 4 h at 70° C. After cooling to room temperature, the plates are centrifuged for 1 min at 1000 rpm and stored for 0.5-2h at room temperature in the dark. Radioactivity from ^14C incorporation into fatty acids in the wells is measured as CPM count in a MicroBeta scintillation counter (Perkin Elmer).

A further data set addresses human rec ACSS2 (Homo sapiens (Human), UniProt Q9NR19). Briefly: Biochemical activity ACSS2 assay (AMP-Glo). Conditions: human recombinant ACSS2, AMP-Glo, 180 min at 37° C. An excerpt:
Biochemical Activity ACSS2 Assay (IC50 ACSS2 Biochemical)
The biochemical activity assay for ACSS2 is based on the detection of released AMP by AMP-Glo™ Assay kit (Promega, Madison). The assay is run in three steps: the enzymatic reaction in which human rec ACSS2 activates acetate with ATP and Coenzyme A as cosubstrates to acetyl-CoA thereby releasing AMP and the detection reaction of AMP by AMP Glo assay in which after the destruction of the residual ATP with AMP Glo reagent 1 produced AMP is converted to ATP that is measured in a luciferase assay system (detection reagent). The ACSS2 activity correlates with the detected luminescence signal.
The assay was performed in Perkin Elmer 384 well white Proxiplates in a total volume of 8 μl.
1 nM (fc)C-term myc tagged ACSS2 (human, recombinant, Origene, Rockville, US) and a mixture of 100 μM (fc) ATP, 100 μM (fc) Coenzyme A and 500 μM (fc) sodium acetate were incubated in a total volume of 5 μl (50 mM Hepes, 1 mM Mg-chloride, 150 mM NaCl, 1 mM DTT, 0.01% (w/v) BSA, 0.3% DMSO, pH 7.5) in the absence or presence of the test compound (10 dilution concentrations, start conc 30 μM) for 180 min at 37° C. The reaction was stopped and residual ATP destroyed by the addition of 1 μl AMP Glo reagent solution (Promega, Madison, US). After 1h incubation at room temperature 2 μl of AMP Glo detection reagent was added and the assay was incubated for 0.75 hr at room temperature. The luminescence signal was measured with an Envision multimode reader (Perkin Elmer LAS Germany GmbH) at 700 nm in luminescence mode. The full value used was the inhibitor-free reaction. The pharmacological zero value was generated by addition of ACSS2 inhibitor (Ac-CoA Synthase Inhibitor—CAS 508186-14-9-Calbiochem) in a final concentration of 5 μM. The inhibitory values (IC50) were determined using the program Assay Analyzer® from GeneData.

A further data set deals with CHO-K1 cells. Kind of data set: Micronucleus assay (MNT) in vitro. Format: cell-based. On the set-up: key: A: negative, putative negative (micronuclei detected beyond threshold of 60% cyctotoxicity); B: positive. Conditions: 24 hrs treatment, 0.2 μM to 100 μM. Here is the method: The in vitro MNT assay is performed in CHO-K1 cells due to their stable and well-characterized karyotype, high sensitivity and suitability for a high content imaging approach. They have a basal spontaneous micronucleus frequency of 3-4%.
24 hrs after plating CHO-K1 cells are treated with test compounds for 24 hrs (in duplicates; fixed concentration ranges from 0.2 μM to 100 μM in 2-fold dilution steps). After a medium change cells are incubated for 24 hrs with Cytochalasin B to block cytokinesis and are then fixed and nuclei/micronuclei visualized with a DNA stain. Images are acquired with the Molecular Devices high content imagers IXU or IXM and are analyzed with the dedicated MetaXpress software micronucleus module. Criteria for scoring of micronuclei (MN) are the following: • diameter of the MN should be less than ⅓ of the main nucleus • MN should be separated from or marginally overlap with main nucleus (=no blebs) • MN should have similar staining as the main nucleus
At least 1000 binucleated cells are evaluated per treatment replicate. Mitomycin C is used as reference stimulator of micronucleus formation. Cytotoxicity is evaluated in parallel and defined by comparing total nuclei count in compound-treated samples to neutral control samples treated with vehicle only (1% DMSO) (100% cytotoxicity means all cells are dead or lost).
A test compound is regarded as POSITIVE if generation of micronuclei and exhibition of less than 60% cytotoxicity at the same concentration can be observed.
Compounds are scored only in the soluble concentration range.
Experimental data of the compounds shown in Table 1 in the MNT assay are shown in Table 2 below and classified in the following groups: […]

SMILES strings stand for the structures.

The IC50 is the midpoint of a concentration-inhibition curve.

Sequence of human rec ACSS2 (Q9NR19 whole entry): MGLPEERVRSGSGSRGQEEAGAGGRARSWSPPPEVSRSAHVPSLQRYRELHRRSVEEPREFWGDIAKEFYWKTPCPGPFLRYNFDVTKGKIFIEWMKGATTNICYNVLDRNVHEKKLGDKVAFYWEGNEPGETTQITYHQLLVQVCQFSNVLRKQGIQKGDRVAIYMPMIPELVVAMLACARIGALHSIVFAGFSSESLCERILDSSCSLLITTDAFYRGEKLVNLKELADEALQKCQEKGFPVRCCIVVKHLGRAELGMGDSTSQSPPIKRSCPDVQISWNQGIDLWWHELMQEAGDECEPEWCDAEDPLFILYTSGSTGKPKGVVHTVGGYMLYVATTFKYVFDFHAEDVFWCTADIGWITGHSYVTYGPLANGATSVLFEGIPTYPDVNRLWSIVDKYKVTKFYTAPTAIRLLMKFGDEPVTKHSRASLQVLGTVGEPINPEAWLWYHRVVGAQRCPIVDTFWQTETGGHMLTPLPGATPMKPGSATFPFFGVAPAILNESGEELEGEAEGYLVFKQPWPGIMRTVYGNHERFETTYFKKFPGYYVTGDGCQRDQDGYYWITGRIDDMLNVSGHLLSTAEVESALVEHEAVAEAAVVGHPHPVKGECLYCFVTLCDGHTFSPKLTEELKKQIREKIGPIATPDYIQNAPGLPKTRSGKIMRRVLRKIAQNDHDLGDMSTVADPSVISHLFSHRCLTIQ
T1 sequence (Q9NR19 whole entry): as above

`CCn1c(C(O)(c2ccccc2)c2nccs2)nc2nc(OC)c(-c3nnn[nH]3)cc21` (racemic) [Compound 31, [1-ethyl-5-methoxy-6-(1H-1,2,3,4-tetrazol-5-yl)-1H-imidazo[4,5-b]pyridin-2-yl](phenyl)(1,3-thiazol-2-yl)methanol]: the concentration for half-maximal inhibition (IC50) is 1 to 10 nM at ACSS2 [1], 0.01 to 1 nM against ACSS2 [2] and 1 to 10 nM at human rec ACSS2.

Take `CCn1c(C(O)(c2ccccc2)c2ccccc2)nc2nc(F)c(-c3nnn[nH]3)cc21` [Compound 45, [1-ethyl-5-fluoro-6-(1H-1,2,3,4-tetrazol-5-yl)-1H-imidazo[4,5-b]pyridin-2-yl]diphenylmethanol]: the IC50 on ACSS2 [1] was 100 to 10000 nM; at ACSS2 [2] it was 1 to 10 nM; on human rec ACSS2, 10 to 100 nM.

Take `Cc1nc2nc(C(O)(c3ccccc3)c3ccccc3)n(C)c2cc1-c1nnn[nH]1` [Compound 56, [1,5-dimethyl-6-(1H-1,2,3,4-tetrazol-5-yl)-1H-imidazo[4,5-b]pyridin-2-yl]diphenylmethanol]: the concentration for half-maximal inhibition (IC50) on ACSS2 [1] is 100 to 10000 nM; at ACSS2 [2], 10 to 100 nM; on human rec ACSS2, 1 to 10 nM.

`CCn1c(C(O)(c2ccccc2F)c2ccccc2F)nc2ncc(-c3nnn[nH]3)cc21` [Compound 61, [1-ethyl-6-(1H-1,2,3,4-tetrazol-5-yl)-1H-imidazo[4,5-b]pyridin-2-yl]bis(2-fluorophenyl)methanol]: the values for the IC50 against ACSS2 [1] and at human rec ACSS2 were 100 to 10000 nM and 10 to 100 nM, respectively. The MNT entry in the data set with CHO-K1 cells is listed as “A”.

The values are drawn from patent US20240009175A9, “TETRAZOLE DERIVATIVES” (Merck Patent GmbH, priority 2020, published 2024).
